Columns and labels:
[1] = tested on: murine bone marrow-derived macrophages; assay: area under cytotoxicity dose-response curve (AUC (% cytotoxicity x dose, relative)); higher = more cytotoxic; conditions: duration: 6 days; dose range: 0.13-80 uM, 8 points
Method in brief: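 Cytotoxicity is given as the area under the dose–response curve, computed in GraphPad Prism version 10. Primary murine bone marrow-derived macrophages in opaque 384-well plates received an 8-point, 2.5-fold dilution series (final 80–0.13 μM) for 6 days at 37 °C in 5% CO2. Viability was measured by Promega's CellTiter-Glo luminescence assay, with percent cytotoxicity normalised to vehicle and positive control wells.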

[2] = tested on: Mycobacterium tuberculosis CDC1551 (intracellular, in murine BMDM); assay: area under intracellular growth-inhibition dose-response curve (AUC (% inhibition x dose, relative)); higher = more potent; conditions: duration: 6 days; dose range: 0.13-80 uM, 8 points
Method in brief: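 Luciferase-expressing M. tuberculosis CDC1551 was used at multiplicity of infection 1 for 1 h to infect primary murine bone marrow-derived macrophages in 384-well opaque plates, 24 h after seeding. Treatment followed for 6 days with an 8-dose, 2.5-fold series at final concentrations of 80–0.13 μM. GraphPad Prism was used to calculate the area under the growth-inhibition dose–response curve from Bright-Glo luciferin readings normalised to a reference drug control and the lowest-concentration wells.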

| Structure (SMILES) | area under cytotoxicity dose-response curve [1] | area under intracellular growth-inhibition dose-response curve [2] |
| --- | --- | --- |
| O=C(COc1ccccc1)NC1C(=O)N2C(C(=O)O)=C(Cl)CSC12 (centres undefined) | < 0 | 144 |
| COC(=O)c1sccc1NC(=O)c1c(F)c(F)c(F)c(F)c1F | 12.8 | 158 |
| CC(C)Oc1ccc(C(=O)NC(=S)Nc2ccc(CN3CCOCC3)cc2)cc1 | 2.7 | 136 |
| Cc1ccc(S(=O)(=O)Nc2c(C)n(C)n(-c3ccccc3)c2=O)cc1C(=O)OC(C)C(=O)c1ccccc1 (centres undefined) | 6.34 | 17 |
| COc1cc(OC)c(/C=N/NC(=O)c2ccncc2)cc1Br | 98 | 249 |
| O=C(COc1ccc(Cl)cc1)NNC(=O)c1ccncc1 | 9.09 | 274 |
| CCOC(=O)/C=C/C(=O)Nc1ccc(-c2nnc3n2CCCCC3)cc1 | 34.8 | 131 |
| CCCCNC(=O)Cc1ccc(C)cc1 | 80.9 | 115 |
| Cc1sc(N/N=C/C=C/c2ccccc2)nc1-c1ccccc1 | 16.1 | 268 |
| CC(NC(=O)c1ccccc1F)C12C[C@H]3C[C@@H](C1)C[C@@H](C2)C3 (some centres undefined) | 18.2 | 234 |
| COc1ccc(CCNc2cc(-c3ccccc3)nc3ncnn23)cc1 | < 0 | 218 |
| COc1cc(/C=N/NC(=O)c2ccncc2)ccc1OCC(=O)Nc1ccccc1 | < 0 | 232 |
| COc1ccc(C(=O)COC(=O)CNC(=O)c2ccc(C)s2)c(OC)c1 | < 0 | 29.9 |
| CNc1nc(SCc2ccc(C)cc2)nc2c1CCCC2 | 19.6 | 274 |
| COc1ccc(NS(=O)(=O)c2cccc(N3CC(=O)C(c4ccccc4)=C3N)c2)cc1 | 45.7 | 43.8 |
| O=C(NC1C2CC3CC(C2)CC1C3)c1ccc2c(c1)OCO2 (centres undefined) | 123 | 226 |
| CC1CCCN(C(=O)c2ccc(CNc3c(N4CCCCC4)c(=O)c3=O)cc2)C1 (centres undefined) | 23 | 271 |
| FC(F)Oc1ccc(NC(=S)Nc2ccc3c[nH]nc3c2)cc1 | < 0 | 219 |
| O=C(NC1CCCC1)c1ccc(Br)s1 | 54.8 | 220 |
| CCOC(=O)c1c(NC(=O)CN2C(=O)N(C)C3(CCCCC3)C2=O)sc(C(=O)N(C)C)c1C | 38.6 | 65 |
| CC1CCC(C(C)C)C(OC(=O)Cn2c(-c3ccc(Br)cc3)[n+](C)c3ccccc32)C1.[Cl-] (centres undefined) | 147 | 128 |
| C/C(=N\NC(=O)c1ccncc1)c1cccc(NC(=O)c2ccc(C(C)(C)C)cc2)c1 | 47.8 | 264 |
| O=C(/C=C/c1cccs1)NC1CCCC1 | 39.1 | 114 |
| Cc1cccc(OCCCC(=O)NNC(=O)c2ccncc2)c1 | < 0 | 224 |
| O=C(/C=C/c1ccc(S(=O)(=O)N2CCOCC2)cc1)NCCc1ccc(C(F)(F)F)cc1 | 42 | 102 |
| CSc1nnc(-c2ccc(NC(N)=S)cc2)o1 | 96.1 | 154 |
| NS(=O)(=O)c1ccc(CCNC(=S)Nc2ccccc2)cc1 | < 0 | 221 |
